Measurements taken from patent publication US20120108629A1, “New use of neferine” (Institute of Chinese Materia Medica, China Academy, priority 2009, published 2012).

Experiments:
[1] = test system: Human breast cancer cell line MDA-MB-453; assay: Inhibition on proliferation of human cancer cells, MDA-MB-453; type: cell-based; details: MDA-MB-453, 72 h incubation
From the text: (§1) Inhibition on proliferation of human cancer cells: It is reported that the drugs that up-regulate TRPM8 or down-regulate TRPV1 can inhibit proliferation of breast cancer. To further investigate whether neferine follow the same way, human breast cancer cell line MDA-MB-231 and MDA-MB-453 as well as cancer gene-containing human breast gland epithelial cell line MCF10A-Myc and human pancreatic cancer cell line MIAPaCa-2 were employed and cultured in DMEM or DMEM/F12 medium with epithelial growth factor in vitro. After incubation with various concentrations of test agents for 72 h, the effective concentration of them for inhibiting the tumor cells was assayed according to the common method in the art.
(§2) According to the “Inhibition on proliferation of human cancer cells” described above, the effective concentrations of neferine for the inhibition of tumors were obtained (table 11).

[2] = test system: Human pancreas cancer cell line MIAPaCa-2; assay: Inhibition on proliferation of human cancer cells, MIAPaCa-2; type: cell-based
From the text: as §1, §2

[3] = test system: Human breast cancer cell line MDA-MB-231; assay: Inhibition on proliferation of human cancer cells, MDA-MB-231; type: cell-based; details: MDA-MB-231, 72 h incubation
From the text: as §1, §2

TRPV1 [4] = biological target: TRPV1 (Rattus norvegicus, UniProt O35433); assay: Intracellular calcium change in DRG cells, Fluo-4 fluorescence (Examples 9-11, Tables 9-11); type: cell-based
TRPV1 (Rattus norvegicus, UniProt O35433), sequence (O35433 whole entry): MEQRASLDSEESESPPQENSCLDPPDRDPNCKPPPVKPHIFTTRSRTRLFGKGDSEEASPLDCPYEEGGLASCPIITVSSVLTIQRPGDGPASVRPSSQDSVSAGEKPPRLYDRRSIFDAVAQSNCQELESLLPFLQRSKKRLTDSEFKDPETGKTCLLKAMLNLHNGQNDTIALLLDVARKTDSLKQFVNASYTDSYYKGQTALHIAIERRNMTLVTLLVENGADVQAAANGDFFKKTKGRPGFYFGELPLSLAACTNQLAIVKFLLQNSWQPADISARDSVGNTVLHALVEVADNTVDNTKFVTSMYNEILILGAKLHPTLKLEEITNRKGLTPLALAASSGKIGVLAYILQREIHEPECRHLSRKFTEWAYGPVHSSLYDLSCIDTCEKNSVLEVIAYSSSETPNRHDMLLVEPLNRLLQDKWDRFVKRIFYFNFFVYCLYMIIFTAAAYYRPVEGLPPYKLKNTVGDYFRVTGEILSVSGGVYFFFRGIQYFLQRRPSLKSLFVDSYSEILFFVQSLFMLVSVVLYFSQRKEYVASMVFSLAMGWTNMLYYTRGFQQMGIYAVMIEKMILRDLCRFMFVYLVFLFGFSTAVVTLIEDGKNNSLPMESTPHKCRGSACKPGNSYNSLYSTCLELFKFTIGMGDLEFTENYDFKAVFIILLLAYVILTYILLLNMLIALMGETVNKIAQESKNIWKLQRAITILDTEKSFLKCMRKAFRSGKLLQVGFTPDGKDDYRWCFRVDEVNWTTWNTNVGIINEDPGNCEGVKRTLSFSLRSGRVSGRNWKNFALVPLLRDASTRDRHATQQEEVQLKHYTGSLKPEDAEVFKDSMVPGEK
Procedure: (§3) Detection of intracellular calcium concentrations of DRG cells: DRG cells cultured under normal, low and high temperature conditions was obtained. The medium was discarded and the cells were washed after certain time. 0.1%F-127, 5 μM of Fluo-4-AM, M fluorescent dye were added and loaded at 25° C. out of light for 30 min. After dye loading, the redundant dye was washed out and buffer and test compounds were added respectively. The cells were put in a closed chamber on a microscope stage. Fluorescence dyed cells were detected with appropriate conditions. The change of fluorescence intensity in each cell was determined and the data were analyzed by software. The change of the intracellular calcium concentration was indicated by fluorescence intensity. The change degree of the intracellular calcium concentration was represented by the percent ratio of the change value of fluorescence intensity before and after administration and the value of fluorescence intensity before administration (Δ[Ca2+]i), i.e. Δ[Ca2+]i=(fluorescence intensity value after administration F-fluorescence intensity value before administration F0)/fluorescence intensity value before administration F0×100%. The change of the intracellular calcium concentration indicated the function of TRP.
(§4) The medium was discarded and the fluorescent dye was added and loaded for 30 min. The change of fluorescence intensity in cell was determined in a closed chamber on a microscope stage and the change of the intracellular calcium concentration was assayed.
as §4
(this is the appropriate stimulation time for the intracellular calcium change after stimulation under 19° C., and the experiment data was not shown). The medium was discarded and the fluorescent dye was added and loaded for 30 min.

TRPV1 [5] = assay: Intracellular calcium change in DRG cells, Fluo-4 fluorescence (Examples 4-5, Tables 4-5); type: cell-based, rat
Procedure: as §3, §4, §4

TRPM8 mRNA = TRPM8 mRNA expression in DRG cells by real-time PCR; details: for Effect on TRPM8 mRNA expression (in words) / TRPM8 mRNA expression (2^−ΔΔCT): DRG cells
Procedure: DRG were aseptically removed and meticulously cleaned the rootlets and connective tissue. The tissue was digested with collagenase and trypsin in succession, and then centrifuged and the digestive liquid was discarded. Cells were prepared into single cell suspension in common culture medium, and then calculated and adjusted to 10^5 nerve cells per ml. It was incubated in culture plates pre-coated with laminin at 37° C. in 5% CO2 for 48 hours. Camptothecine was used to inhibit proliferation of other cells. Culture was continued to obtain DRG cells with a high purity (>98%).
Detection of TRPM8 and TRPV1 mRNA expression: The total RNA of the DRG neuronal cells was extracted in a routine way, after exposure to the tested agents of various concentrations under the normal, low and high temperature conditions respectively. The concentration of RNA was measured and its cDNA was prepared. The desired amount of resulting cDNA and TRPM8 or TRPV1 gene primers were added on the IQ5-Type real-time IQ5-Type real-time PCR meter with GAPDH as the endogenous control to perform extension. Melting curves were generated. Relative gene expression was calculated using the comparative threshold cycle (2-^ΔΔCT) method with the calculated formula as following:
ΔΔCt=(Ct,Target-Ct,GAPDH)x-(Ct,Target-Ct,GAPDH)Control
X represents any one of tested, Control represents double target gene expression after GAPDH correction.
The purified culture medium of DRG cells was added with three different concentrations of test compounds and cultured at 37° C. in 5% CO2 for 24 h. The total RNA was extracted immediately after culture. The TRPM8 agonist hexahydrothymol was positive control group and the normal culture medium was vehicle control group. Then the real-time PCR amplification was performed and TRPM8 mRNA was determined.
The purified culture medium of DRG cells was added with three different concentrations of test compounds and cultured at 37° C. in 5% CO2 for 23 h followed by 39° C. in 5% CO2 for 1 h. The total RNA was extracted immediately after culture. The TRPM8 agonist hexahydrothymol was positive control group and the normal culture medium was vehicle control group. Then the real-time PCR amplification was performed and TRPM8 mRNA was determined.
The purified culture medium of DRG cells was added with three different concentrations of test compounds and cultured at 37° C. in 5% CO2 for 22 h followed by 19° C. in 5% CO2 for 2 h. The total RNA was extracted immediately after culture. The TRPM8 agonist hexahydrothymol was positive control group and the normal culture medium was vehicle control group. Then the real-time PCR amplification was performed and TRPM8 mRNA was determined.

breast cancer cells = assay: Inhibition on proliferation of human cancer cells, breast cancer cells; type: cell-based
From the text: as §1, §2

[6] = test system: Cancer gene-containing human breast epithelial cell line MCF10A-Myc; assay: Inhibition on proliferation, MCF10A-Myc; type: cell-based; details: 72 h incubation
From the text: as §1, §2

TRPV1 mRNA = TRPV1 mRNA expression in DRG cells by real-time PCR; type: cell-based, rat; details: for TRPV1 mRNA expression (2^−ΔΔCT): 37° C. 24 h
[7] = 37° C. 22 h then 19° C. 2 h, 2.5 μmol/L
[8] = 37° C. 22 h then 19° C. 2 h, 5 μmol/L
[9] = 37° C. 22 h then 19° C. 2 h, 10 μmol/L
[10] = 37° C. 23 h then 39° C. 1 h, 2.5 μmol/L
[11] = 37° C. 23 h then 39° C. 1 h, 5 μmol/L
[12] = 37° C. 23 h then 39° C. 1 h, 10 μmol/L

neferine
Inhibition concentration [1]: 2.05 µg/mL | Inhibition concentration ([2]; MIAPaCa-2, 72 h incubation): 3.64 µg/mL | inhibition concentration for pancreas ([2]; pancreas cancer cells): below 4 μg/ml | Inhibition concentration [3]: 1.30 µg/mL | Effect on intracellular calcium concentration (in words) (TRPV1 [4]; Example 9, DRG cells, 37° C.): decrease the concentration of intracellular calcium dose-dependently | correlation coefficient of dose dependence, intracellular calcium (TRPV1 [4]; Example 9, DRG cells, 37° C.): −0.85 | Effect on intracellular calcium concentration (in words) (TRPV1 [4]; Example 10, DRG cells, 39° C.): inhibit the change of the intracellular calcium concentration dose-dependently | correlation coefficient of dose dependence, intracellular calcium (TRPV1 [4]; Example 10, DRG cells, 39° C.): −0.815 | Effect on intracellular calcium concentration (in words) (TRPV1 [4]; Example 11, DRG cells, 19° C.): further inhibit the change of the intracellular calcium concentration dose-dependently | correlation coefficient of dose dependence, intracellular calcium (TRPV1 [4]; Example 11, DRG cells, 19° C.): −0.99 | Intracellular Calcium changes [(F1 − F0)/F0/%] (TRPV1 [4]; Table 9, DRG cells, 37° C. 24 h, 2.5 μmol/L): 98.15 ± 10.71% | Intracellular Calcium changes [(F1 − F0)/F0/%] (TRPV1 [4]; Table 9, DRG cells, 37° C. 24 h, 5 μmol/L): 98.64 ± 12.77% | Intracellular Calcium changes [(F1 − F0)/F0/%] (TRPV1 [4]; Table 9, DRG cells, 37° C. 24 h, 10 μmol/L): 96.33 ± 8.96% | Intracellular Calcium changes [(F1 − F0)/F0/%] (TRPV1 [4]; Table 10, DRG cells, 37° C. 22 h then 39° C. 2 h, 2.5 μmol/L): 128.63 ± 14.40% | Intracellular Calcium changes [(F1 − F0)/F0/%] (TRPV1 [4]; Table 10, DRG cells, 37° C. 22 h then 39° C. 2 h, 5 μmol/L): 120.51 ± 11.29% | Intracellular Calcium changes [(F1 − F0)/F0/%] (TRPV1 [4]; Table 10, DRG cells, 37° C. 22 h then 39° C. 2 h, 10 μmol/L): 119.49 ± 11.21% | Intracellular Calcium changes [(F1 − F0)/F0/%] (TRPV1 [4]; Table 11, DRG cells, 37° C. 21 h then 19° C. 3 h, 2.5 μmol/L): 99.71 ± 10.96% | Intracellular Calcium changes [(F1 − F0)/F0/%] (TRPV1 [4]; Table 11, DRG cells, 37° C. 21 h then 19° C. 3 h, 5 μmol/L): 98.30 ± 11.89% | Intracellular Calcium changes [(F1 − F0)/F0/%] (TRPV1 [4]; Table 11, DRG cells, 37° C. 21 h then 19° C. 3 h, 10 μmol/L): 93.02 ± 10.54% | Effect on intracellular calcium concentration (in words) (TRPV1 [5]; Example 4, DRG cells, 37° C.): increase the intracellular calcium concentration dose-dependently | Intracellular Calcium changes [(F1 − F0)/F0/%] (TRPV1 [5]; Table 4, DRG cells, 37° C. 24 h, 2.5 μmol/L): 121.41 ± 10.05% | Intracellular Calcium changes [(F1 − F0)/F0/%] (TRPV1 [5]; Table 4, DRG cells, 37° C. 24 h, 5 μmol/L): 128.16 ± 11.48% | Intracellular Calcium changes [(F1 − F0)/F0/%] (TRPV1 [5]; Table 4, DRG cells, 37° C. 24 h, 10 μmol/L): 132.07 ± 19.30 % | Intracellular Calcium changes [(F1 − F0)/F0/%] (TRPV1 [5]; Table 5, DRG cells, 37° C. 22 h then 39° C. 2 h, 2.5 μmol/L): 107.88 ± 13.07% | Intracellular Calcium changes [(F1 − F0)/F0/%] (TRPV1 [5]; Table 5, DRG cells, 37° C. 22 h then 39° C. 2 h, 5 μmol/L): 108.09 ± 12.85% | Intracellular Calcium changes [(F1 − F0)/F0/%] (TRPV1 [5]; Table 5, DRG cells, 37° C. 22 h then 39° C. 2 h, 10 μmol/L): 112.72 ± 11.74 % | Effect on TRPM8 mRNA expression (in words) (TRPM8 mRNA; 19° C.): up-regulate the expression levels of TRPM8 mRNA dose-dependently | Effect on TRPM8 mRNA expression (in words) (TRPM8 mRNA; 37° C.): up-regulate the expression levels of TRPM8 mRNA dose-dependently | TRPM8 mRNA expression (2^−ΔΔCT) (TRPM8 mRNA; [7]): 3.25 ± 0.65 | TRPM8 mRNA expression (2^−ΔΔCT) (TRPM8 mRNA; [8]): 3.37 ± 0.87 | TRPM8 mRNA expression (2^−ΔΔCT) (TRPM8 mRNA; [9]): 3.49 ± 0.82 | TRPM8 mRNA expression (2^−ΔΔCT) (TRPM8 mRNA; [10]): 0.74 ± 0.23 | TRPM8 mRNA expression (2^−ΔΔCT) (TRPM8 mRNA; [11]): 0.78 ± 0.33 | TRPM8 mRNA expression (2^−ΔΔCT) (TRPM8 mRNA; [12]): 0.79 ± 0.24 | TRPM8 mRNA expression (2^−ΔΔCT) (TRPM8 mRNA; 37° C. 24 h, 2.5 μmol/L): 1.10 ± 0.27 | TRPM8 mRNA expression (2^−ΔΔCT) (TRPM8 mRNA; 37° C. 24 h, 5 μmol/L): 1.14 ± 0.31 | TRPM8 mRNA expression (2^−ΔΔCT) (TRPM8 mRNA; 37° C. 24 h, 10 μmol/L): 1.28 ± 0.27 | Effect on TRPM8 mRNA expression (in words) (TRPM8 mRNA; 39° C.): did not up-regulate TRPM8 mRNA expression | Effect compared with the agonist hexahydrothymol (in words) (TRPM8 mRNA; general statement on TRPM8): stronger effect than hexahydrothymol | inhibition concentration on breast cancer cells (breast cancer cells): below 2.1 μg/ml | Inhibition concentration [6]: 5.95 µg/mL | Effect on TRPV1 mRNA expression (in words) (TRPV1 mRNA; 19° C.): further inhibit expression levels of TRPV1 mRNA dose-dependently | TRP V1 mRNA expression(2^−ΔΔCT) (TRPV1 mRNA; [7]): 0.54 ± 0.17 | TRP V1 mRNA expression(2^−ΔΔCT) (TRPV1 mRNA; [8]): 0.47 ± 0.20 | TRP V1 mRNA expression(2^−ΔΔCT) (TRPV1 mRNA; [9]): 0.45 ± 0.23 | TRP V1 mRNA expression(2^−ΔΔCT) (TRPV1 mRNA; [10]): 4.16 ± 0.71 | TRP V1 mRNA expression(2^−ΔΔCT) (TRPV1 mRNA; [11]): 3.70 ± 0.69 | TRP V1 mRNA expression(2^−ΔΔCT) (TRPV1 mRNA; [12]): 3.13 ± 0.51 | TRPV1 mRNA expression (2^−ΔΔCT) (TRPV1 mRNA; 2.5 μmol): 0.96 ± 0.41 | TRPV1 mRNA expression (2^−ΔΔCT) (TRPV1 mRNA; 5 μmol): 1.09 ± 0.30 | TRPV1 mRNA expression (2^−ΔΔCT) (TRPV1 mRNA; 10 μmol): 1.04 ± 0.43 | Effect on TRPV1 mRNA expression (in words) (TRPV1 mRNA; 37° C., under the test concentrations): could not change expression levels of TRPV1 mRNA | Effect on TRPV1 mRNA expression (in words) (TRPV1 mRNA; 39° C.): decrease the expression levels of TRPV1 mRNA dose-dependently
